Experimental data published in PubChem BioAssay AID1259407 (Chemical Carcinogenesis Research Information System (CCRIS), 2018).
Calls of active or inactive are those of the source. The rule behind the calls is not given here.

System: CCRIS mutagenicity, Ames/micronucleus/aberration tests
Test: CCRIS mutagenicity studies
[1] = Test System: AMES SALMONELLA TYPHIMURIUM, Strain/Indicator: TA97A, Metabolic Activation: NONE, Method: PREINCUBATION
[2] = Test System: AMES SALMONELLA TYPHIMURIUM, Strain/Indicator: TA98, Metabolic Activation: NONE, Method: PREINCUBATION
[3] = Test System: AMES SALMONELLA TYPHIMURIUM, Strain/Indicator: TA98, Metabolic Activation: NONE, Method: STANDARD PLATE
[4] = Test System: AMES SALMONELLA TYPHIMURIUM, Strain/Indicator: TA98, Metabolic Activation: RAT, LIVER, S-9, AROCLOR 1254, Method: STANDARD PLATE
[5] = Test System: AMES SALMONELLA TYPHIMURIUM, Strain/Indicator: TA100, Metabolic Activation: NONE, Method: STANDARD PLATE
[6] = Test System: AMES SALMONELLA TYPHIMURIUM, Strain/Indicator: TA100, Metabolic Activation: RAT, LIVER, S-9, AROCLOR 1254, Method: PREINCUBATION
[7] = Test System: AMES SALMONELLA TYPHIMURIUM, Strain/Indicator: TA100, Metabolic Activation: RAT, LIVER, S-9, AROCLOR 1254, Method: STANDARD PLATE
[8] = Test System: AMES SALMONELLA TYPHIMURIUM, Strain/Indicator: TA102, Metabolic Activation: NONE, Method: PREINCUBATION
[9] = Test System: AMES SALMONELLA TYPHIMURIUM, Strain/Indicator: TA1535, Metabolic Activation: NONE, Method: STANDARD PLATE
[10] = Test System: AMES SALMONELLA TYPHIMURIUM, Strain/Indicator: TA1535, Metabolic Activation: RAT, LIVER, S-9, AROCLOR 1254, Method: STANDARD PLATE
[11] = Test System: AMES SALMONELLA TYPHIMURIUM, Strain/Indicator: TA1537, Metabolic Activation: NONE, Method: STANDARD PLATE
[12] = Test System: AMES SALMONELLA TYPHIMURIUM, Strain/Indicator: TA1537, Metabolic Activation: RAT, LIVER, S-9, AROCLOR 1254, Method: STANDARD PLATE
[13] = Test System: AMES SALMONELLA TYPHIMURIUM, Strain/Indicator: TA1538, Metabolic Activation: NONE, Method: STANDARD PLATE
[14] = Test System: AMES SALMONELLA TYPHIMURIUM, Strain/Indicator: TA1538, Metabolic Activation: RAT, LIVER, S-9, AROCLOR 1254, Method: STANDARD PLATE
[15] = Test System: AMES SALMONELLA TYPHIMURIUM, Strain/Indicator: TA100, Metabolic Activation: NONE, Method: PREINCUBATION

Measured: mutagenic call

CN=C=O
inactive: [1] inactive; negative | Test System: AMES SALMONELLA TYPHIMURIUM, Strain/Indicator: TA97A, Metabolic Activation: RAT, LIVER, S-9, AROCLOR 1254, Method: PREINCUBATION inactive; negative | Test System: AMES SALMONELLA TYPHIMURIUM, Strain/Indicator: TA97A, Metabolic Activation: RAT, LIVER, S-9, BETA-NAPHTHOFLAVONE, Method: PREINCUBATION inactive; negative | Test System: AMES SALMONELLA TYPHIMURIUM, Strain/Indicator: TA97A, Metabolic Activation: RAT, LIVER, S-9, SODIUM PHENOBARBITONE, Method: PREINCUBATION inactive; negative | Test System: AMES SALMONELLA TYPHIMURIUM, Strain/Indicator: TA98, Metabolic Activation: HAMSTER, LIVER, S-9, AROCLOR 1254, Method: STANDARD PLATE inactive; negative | [2] inactive; negative | [3] inactive; negative | Test System: AMES SALMONELLA TYPHIMURIUM, Strain/Indicator: TA98, Metabolic Activation: RAT, LIVER, S-9, AROCLOR 1254, Method: PREINCUBATION inactive; negative | [4] inactive; negative | Test System: AMES SALMONELLA TYPHIMURIUM, Strain/Indicator: TA98, Metabolic Activation: RAT, LIVER, S-9, BETA-NAPHTHOFLAVONE, Method: PREINCUBATION inactive; negative | Test System: AMES SALMONELLA TYPHIMURIUM, Strain/Indicator: TA98, Metabolic Activation: RAT, LIVER, S-9, SODIUM PHENOBARBITONE, Method: PREINCUBATION inactive; negative | Test System: AMES SALMONELLA TYPHIMURIUM, Strain/Indicator: TA100, Metabolic Activation: HAMSTER, LIVER, S-9, AROCLOR 1254, Method: STANDARD PLATE inactive; negative | [5] inactive; negative | [6] inactive; negative | [7] inactive; negative | Test System: AMES SALMONELLA TYPHIMURIUM, Strain/Indicator: TA100, Metabolic Activation: RAT, LIVER, S-9, BETA-NAPHTHOFLAVONE, Method: PREINCUBATION inactive; negative | Test System: AMES SALMONELLA TYPHIMURIUM, Strain/Indicator: TA100, Metabolic Activation: RAT, LIVER, S-9, SODIUM PHENOBARBITONE, Method: PREINCUBATION inactive; negative | [8] inactive; negative | Test System: AMES SALMONELLA TYPHIMURIUM, Strain/Indicator: TA102, Metabolic Activation: RAT, LIVER, S-9, AROCLOR 1254, Method: PREINCUBATION inactive; negative | Test System: AMES SALMONELLA TYPHIMURIUM, Strain/Indicator: TA102, Metabolic Activation: RAT, LIVER, S-9, BETA-NAPHTHOFLAVONE, Method: PREINCUBATION inactive; negative | Test System: AMES SALMONELLA TYPHIMURIUM, Strain/Indicator: TA102, Metabolic Activation: RAT, LIVER, S-9, SODIUM PHENOBARBITONE, Method: PREINCUBATION inactive; negative | Test System: AMES SALMONELLA TYPHIMURIUM, Strain/Indicator: TA104, Metabolic Activation: RAT, LIVER, S-9, AROCLOR 1254, Method: PREINCUBATION inactive; negative | Test System: AMES SALMONELLA TYPHIMURIUM, Strain/Indicator: TA104, Metabolic Activation: RAT, LIVER, S-9, BETA-NAPHTHOFLAVONE, Method: PREINCUBATION inactive; negative | Test System: AMES SALMONELLA TYPHIMURIUM, Strain/Indicator: TA104, Metabolic Activation: RAT, LIVER, S-9, SODIUM PHENOBARBITONE, Method: PREINCUBATION inactive; negative | Test System: AMES SALMONELLA TYPHIMURIUM, Strain/Indicator: TA1535, Metabolic Activation: HAMSTER, LIVER, S-9, AROCLOR 1254, Method: STANDARD PLATE inactive; negative | [9] inactive; negative | [10] inactive; negative | Test System: AMES SALMONELLA TYPHIMURIUM, Strain/Indicator: TA1537, Metabolic Activation: HAMSTER, LIVER, S-9, AROCLOR 1254, Method: STANDARD PLATE inactive; negative | [11] inactive; negative | [12] inactive; negative | Test System: AMES SALMONELLA TYPHIMURIUM, Strain/Indicator: TA1538, Metabolic Activation: HAMSTER, LIVER, S-9, AROCLOR 1254, Method: STANDARD PLATE inactive; negative | [13] inactive; negative | [14] inactive; negative | Test System: MOUSE LYMPHOMA, Strain/Indicator: L5178Y (TK+/TK-), Metabolic Activation: RAT, LIVER, S-9, AROCLOR 1254, Method: SUSPENSION/PLATE inactive; negative. reevaluation of results: negative

Fc1cccc2cccnc12
inactive: End Point: In vitro micronucleus, Test System: Chinese hamster lung fibroblast cells (CHL/IU), Metabolic Activation: Rat, Liver, S-9 inactive; negative, cytotoxic at 0.2 mg/ml. (information derived from a figure)
active: End Point: In vitro chromosomal aberrations, Test System: Chinese hamster lung fibroblast cells (CHL/IU), Metabolic Activation: Rat, Liver, S-9 active; positive, described as marginally clastogenic at nontoxic doses. (information de | Test System: AMES SALMONELLA TYPHIMURIUM, Strain/Indicator: TA100, Metabolic Activation: RAT LIVER S-9, PHENOBARBITAL AND 5,6-BENZOFLAVONE, Method: PREINCUBATION active; positive | [6] active; positive | Test System: AMES SALMONELLA TYPHIMURIUM, Strain/Indicator: TA100, Metabolic Activation: RAT, LIVER, S-9, PHENOBARBITAL AND 5,6-BENZOFLAVONE, Method: PREINCUBATION active; positive | Test System: AMES SALMONELLA TYPHIMURIUM, Strain/Indicator: TA100, Metabolic Activation: RAT, LIVER, S-9, PHENOBARBITAL AND 5,6-NAPHTHOFLAVONE, Method: PREINCUBATION active; positive | Test System: AMES SALMONELLA TYPHIMURIUM, Strain/Indicator: TA100, Metabolic Activation: S-9, Method: PREINCUBATION active; positive | Test System: UDS RODENT HEPATOCYTES, Strain/Indicator: THY INCORP (NON-S-PHASE), Metabolic Activation: NONE, Method: AUTORADIOGRAPHY active; positive

O=C(O)c1cc(=O)c2cccc(O)c2[nH]1
inactive: [15] inactive; negative

CCN(CC)c1ccc(-c2ccc(-c3ccc(-c4ccc(N(CC)CC)cc4)cc3)cc2)cc1
inactive: [13] inactive; negative | [14] inactive; negative

O=c1[nH]cc2ccc3cccc4ccc1c2c34
inactive: [3] inactive; negative | [4] inactive; negative | [5] inactive; negative | [7] inactive; negative

Cc1cccc2nc3c(ccc4ccccc43)cc12
active: [1] active; positive | [8] active; positive
inactive: [2] inactive; negative | [15] inactive; negative

CCN1CCN=N1
active: [9] active; positive

NCC1CCC(C(=O)c2ccc(CCC(=O)O)cc2)CC1 (stereo unspecified)
inactive: [3] inactive; negative | [4] inactive; negative | [5] inactive; negative | [7] inactive; negative | [9] inactive; negative | [10] inactive; negative | [11] inactive; negative | [12] inactive; negative | [13] inactive; negative | [14] inactive; negative | Test System: E. COLI, Strain/Indicator: WP2 UVRA, Metabolic Activation: NONE, Method: STANDARD PLATE inactive; negative | Test System: E. COLI, Strain/Indicator: WP2 UVRA, Metabolic Activation: RAT, LIVER, S-9, AROCLOR 1254, Method: STANDARD PLATE inactive; negative
